Like-named read-outs stand apart in the source and are kept apart here.
Tested on: STAT5
Assay: Immunoblotting (Western blot) analysis of STAT5 degradation efficiency of degraders in treated cells
Type: cell-based
Procedure: Evaluation of the degradation efficiency of degraders may be accomplished by immunoblotting analysis. The representative general protocol is the following:
Cells are maintained in the appropriate culture medium with 10% FBS at 37° C. and an atmosphere of 5% CO2. Cell lines are used within three months of thawing fresh vials. Cells are lysed 1× Cell Lysis Buffer (Cell Signaling Technology, #9803), resolved by SDS-PAGE NuPAGE gel (Thermo Fisher Scientific), and transferred to a PVDF membrane (Millipore). Membranes are blocked using Odyssey TBS Blocker Buffer (LI-COR). IRDye 680RD and 800CW Dye-labeled secondary antibodies (LI-COR) are used. The washed membranes are scanned using Odyssey CLx imager (LI-COR). The intensity of Western blot signaling is quantitated using the Odyssey software. Primary antibodies used are: STAT5 Rabbit mAb (Cell Signaling Technology, #94205), STAT6 Rabbit mAb (Cell Signaling Technology, #5397) and GAPDH mouse monoclonal antibody (Santa Cruz Biotechnology, sc-47724).
To evaluate the degradation efficiency of degraders, immunoblotting analysis was performed. The general protocol is the following.
About 1 million cells for each data point were treated with compounds at indicated concentrations and durations. Untreated and treated cells in cell culture medium were transferred into tubes, followed by centrifugation at 3,000 rpm and 4° C. for 6 min Supernatants were removed from tubes and radioimmunoprecipitation assay (RIPA) lysis buffer supplemented with 1% protease inhibitor cocktail (Fisher Scientific cat. PI87786) and phosphatase inhibitor (Roche cat. 04906837001) were added to tubes containing the remaining cell pellets. The tubes were then left on ice for 30 min and placed in a −80° C. freezer. Subsequently they were thawed in 37° C. water, then centrifuged at 14,000 rpm for 15 min and the cell lysates transferred to new tubes. The concentration of total proteins in each tube was calculated using the Pierce BCA protein Assay kit (cat. 23225). Based on the calculated protein concentration, cell lysates containing approximately the same amount of proteins were transferred to new tubes, then distilled water and 4× Protein Sample Loading Buffer for Western Blots (LI-COR cat. 928-40004) supplemented with 20% of mercaptoethanol (Sigma Aldrich cat. M6250) were added on ice. The cell lysates were then reduced and denatured at 95° C. for 5 min. From the tubes containing cell lysates an equal amount of protein samples (20-40 μg) was loaded into precast 8%, 10%, 4%-12%, or 4%-20% Tris-glycine gels (Novex) filled with Tris-glycine SDS running buffer. After the proteins were resolved, they were transferred onto Immobile-FL PVDF Membrane (Millipore Sigma cat. IPFL00010), using Mini Trans-Blot Electrophoretic Transfer Cell (Bio-Rad 1703930). The membranes were blocked with Intercept Blocking Buffer (LI-COR cat. 927-70001) in LI-COR Western Blot boxes for 1 h at rt. The membranes were washed with 1× Tris-buffered saline-Tween-20 (TBST, 1× solution was made from 20×TBST solution, ThermoFisher Scientific cat. 28360) for 5 min 4 times. The membranes were incubated overnight at 4° C. in Intercept Blocking Buffer supplemented with primary antibodies (normally antibody:buffer 1:1000) and Tween-20. The membranes were washed with TBST for 5 min 4 times and were incubated with Intercept Blocking Buffer supplemented with IRDye 800CE Secondary Antibodies, IRDye 680RD Secondary Antibodies (LI-COR biosciences), Tween-20, and 10% SDS solution, for 1 h at rt. The membranes were then washed with TBST for 5 min 4 times and rinsed with deionized water before drying and scanning with Odyssey Dlx Amazing System (LI-COR). The immunoblots were finally quantified by the software.

[1] = MOLM-16 cells, numeric bound, read-out: DC50 S5 MOLM-16
[2] = SKNO1 cells, read-out: DC50 S5 SKNO1

| Structure (SMILES) | DC50 [1] [µM] | DC50 [2] [µM] | DC50 (KU-812 cells, read-out: DC50 S5 KU-812) [µM] |
| --- | --- | --- | --- |
| CC(C)(C)[C@H](NC(=O)c1cc2cc(C(F)(F)P(=O)(O)O)ccc2s1)C(=O)N1C[C@H](OCc2ccccc2)C[C@H]1C(=O)N(CCC(=O)NCCCC#Cc1cccc2c1CN(C1CCC(=O)NC1=O)C2=O)c1ccc(Br)cc1 (some centres unmarked) [Compound 618] | > 0.3 |  |  |
| CCN1CC[C@H]2CC[C@@H](C(=O)N(CCC(=O)NCCCCC#Cc3cccc4c3CN(C3CCC(=O)NC3=O)C4=O)c3ccc(Br)cc3)N2C(=O)[C@@H](NC(=O)c2cc3cc(C(F)(F)P(=O)(O)O)ccc3s2)C1 (stereo partly drawn) [Compound 628, ((2-(((5S,8S,10aR)-8-((4-bromophenyl)(3-((6-(2-(2,6-dioxopiperidin-3-yl)-1-oxoisoindolin-4-yl)hex-5-yn-1-yl)amino)-3-oxopropyl)carbamoyl)-3-ethyl-6-oxodecahydropyrrolo[1,2-a][1,5]diazocin-5-yl)carbamoyl)benzo[b]thiophen-5-yl)difluoromethyl)phosphonic acid] | > 0.3 |  |  |
| CC(C)(C)[C@H](NC(=O)c1cc2cc(C(F)(F)P(=O)(O)O)ccc2s1)C(=O)N1C[C@@H](OCc2ccccc2)C[C@H]1C(=O)N(CCC(=O)NCCCC#Cc1cccc2c1CN(C1CCC(=O)NC1=O)C2=O)c1ccc(Br)cc1 (stereo partly drawn) [Compound 623, ((2-(((2S)-1-((2S,4S)-4-(benzyloxy)-2-((4-bromophenyl)(3-((5-(2-(2,6-dioxopiperidin-3-yl)-1-oxoisoindolin-4-yl)pent-4-yn-1-yl)amino)-3-oxopropyl)carbamoyl)pyrrolidin-1-yl)-3,3-dimethyl-1-oxobutan-2-yl)carbamoyl)benzo[b]thiophen-5-yl)difluoromethyl)phosphonic acid] | > 0.3 |  |  |
| CC(C)(C)[C@H](NC(=O)c1cc2cc(C(F)(F)P(=O)(O)O)ccc2s1)C(=O)N1CCC[C@H]1C(=O)N(CC(=O)NCCCCC#Cc1cccc2c1CN(C1CCC(=O)NC1=O)C2=O)c1ccc(Cl)cc1 (stereo partly drawn) [Compound 641, ((2-(((2S)-1-((2S)-2-((4-chlorophenyl)(2-((6-(2-(2,6-dioxopiperidin-3-yl)-1-oxoisoindolin-4-yl)hex-5-yn-1-yl)amino)-2-oxoethyl)carbamoyl)pyrrolidin-1-yl)-3,3-dimethyl-1-oxobutan-2-yl)carbamoyl)benzo[b]thiophen-5-yl)difluoromethyl)phosphonic acid] | > 0.3 | > 10 |  |
| CC(C)(C)[C@H](NC(=O)c1cc2cc(C(F)(F)P(=O)(O)O)ccc2s1)C(=O)N1CCC[C@H]1C(=O)N(CCC(=O)NCCCC#Cc1cccc2c1CN(C1CCC(=O)NC1=O)C2=O)c1ccc(F)cc1 (stereo partly drawn) [Compound 634, ((2-(((2S)-1-((2S)-2-((3-((5-(2-(2,6-dioxopiperidin-3-yl)-1-oxoisoindolin-4-yl)pent-4-yn-1-yl)amino)-3-oxopropyl)(4-fluorophenyl)carbamoyl)pyrrolidin-1-yl)-3,3-dimethyl-1-oxobutan-2-yl)carbamoyl)benzo[b]thiophen-5-yl)difluoromethyl)phosphonic acid] | > 0.3 | > 10 |  |

The next lines start with the values.

| DC50 [1] [µM] | DC50 [2] [µM] | DC50 (KU-812 cells, read-out: DC50 S5 KU-812) [µM] | Structure (SMILES) |
| --- | --- | --- | --- |
| > 0.3 |  |  | CCN1CC[C@H]2CC[C@@H](C(=O)N(CCC(=O)NCCCCCC#Cc3cccc4c3CN(C3CCC(=O)NC3=O)C4=O)c3ccc(Br)cc3)N2C(=O)[C@@H](NC(=O)c2cc3cc(C(F)(F)P(=O)(O)O)ccc3s2)C1 (stereo partly drawn) [Compound 629, ((2-(((5S,8S,10aR)-8-((4-bromophenyl)(3-((7-(2-(2,6-dioxopiperidin-3-yl)-1-oxoisoindolin-4-yl)hept-6-yn-1-yl)amino)-3-oxopropyl)carbamoyl)-3-ethyl-6-oxodecahydropyrrolo[1,2-a][1,5]diazocin-5-yl)carbamoyl)benzo[b]thiophen-5-yl)difluoromethyl)phosphonic acid] |
| > 0.3 |  |  | CC(C)(C)[C@H](NC(=O)c1cc2cc(C(F)(F)P(=O)(O)O)ccc2s1)C(=O)N1C[C@H](OCc2ccccc2)C[C@H]1C(=O)N(CCC(=O)NCC#Cc1cccc2c1CN(C1CCC(=O)NC1=O)C2=O)c1ccc(Br)cc1 (stereo partly drawn) [Compound 616, ((2-(((2S)-1-((2S,4R)-4-(benzyloxy)-2-((4-bromophenyl)(3-((3-(2-(2,6-dioxopiperidin-3-yl)-1-oxoisoindolin-4-yl)prop-2-yn-1-yl)amino)-3-oxopropyl)carbamoyl)pyrrolidin-1-yl)-3,3-dimethyl-1-oxobutan-2-yl)carbamoyl)benzo[b]thiophen-5-yl)difluoromethyl)phosphonic acid] |
| > 0.3 | > 10 |  | CC(C)(C)[C@H](NC(=O)c1cc2cc(C(F)(F)P(=O)(O)O)ccc2s1)C(=O)N1CCC[C@H]1C(=O)N(CCC(=O)NCCCC#Cc1cccc2c1CN(C1CCC(=O)NC1=O)C2=O)c1cccc(C(F)(F)F)c1 (stereo partly drawn) [Compound 645, ((2-(((2S)-1-((2S)-2-((3-((5-(2-(2,6-dioxopiperidin-3-yl)-1-oxoisoindolin-4-yl)pent-4-yn-1-yl)amino)-3-oxopropyl)(3-(trifluoromethyl)phenyl)carbamoyl)pyrrolidin-1-yl)-3,3-dimethyl-1-oxobutan-2-yl)carbamoyl)benzo[b]thiophen-5-yl)difluoromethyl)phosphonic acid] |
| > 0.3 | 1 to 10 | 1 to 10 | CC(C)(C)[C@H](NC(=O)c1cc2cc(C(F)(F)P(=O)(O)O)ccc2s1)C(=O)N1CCC[C@H]1C(=O)N(CCC(=O)NCCCC#Cc1cccc2c1CN(C1CCC(=O)NC1=O)C2=O)c1ccc(Cl)cc1 (stereo partly drawn) [Compound 635, ((2-(((2S)-1-((2S)-2-((4-chlorophenyl)(3-((5-(2-(2,6-dioxopiperidin-3-yl)-1-oxoisoindolin-4-yl)pent-4-yn-1-yl)amino)-3-oxopropyl)carbamoyl)pyrrolidin-1-yl)-3,3-dimethyl-1-oxobutan-2-yl)carbamoyl)benzo[b]thiophen-5-yl)difluoromethyl)phosphonic acid] |
| > 0.3 |  |  | CC(C)(C)[C@H](NC(=O)c1cc2cc(C(F)(F)P(=O)(O)O)ccc2s1)C(=O)N1C[C@H](OCc2ccc(C#Cc3cccc4c3CN(C3CCC(=O)NC3=O)C4=O)cc2)C[C@H]1C(=O)Nc1ncc(-c2ccccc2)s1 (stereo partly drawn) [Compound 632, ((2-(((2S)-1-((2S,4R)-4-((4-((2-(2,6-dioxopiperidin-3-yl)-1-oxoisoindolin-4-yl)ethynyl)benzyl)oxy)-2-((5-phenylthiazol-2-yl)carbamoyl)pyrrolidin-1-yl)-3,3-dimethyl-1-oxobutan-2-yl)carbamoyl)benzo[b]thiophen-5-yl)difluoromethyl)phosphonic acid] |
| > 0.3 |  |  | CCN1CC[C@H]2CC[C@@H](C(=O)N(CCC(=O)N3CCC(Nc4cccc5c4CN(C4CCC(=O)NC4=O)C5=O)CC3)c3ccc(Br)cc3)N2C(=O)[C@@H](NC(=O)c2cc3cc(C(F)(F)P(=O)(O)O)ccc3s2)C1 (stereo partly drawn) [Compound 631, ((2-(((5S,8S,10aR)-8-((4-bromophenyl)(3-(4-((2-(2,6-dioxopiperidin-3-yl)-1-oxoisoindolin-4-yl)amino)piperidin-1-yl)-3-oxopropyl)carbamoyl)-3-ethyl-6-oxodecahydropyrrolo[1,2-a][1,5]diazocin-5-yl)carbamoyl)benzo[b]thiophen-5-yl)difluoromethyl)phosphonic acid] |
| > 0.3 |  |  | CC(C)(C)[C@H](NC(=O)c1cc2cc(C(F)(F)P(=O)(O)O)ccc2s1)C(=O)N1C[C@H](OCc2ccccc2)C[C@H]1C(=O)N(CCC(=O)NCCC#Cc1cccc2c1CN(C1CCC(=O)NC1=O)C2=O)c1ccc(Br)cc1 (stereo partly drawn) [Compound 617, ((2-(((2S)-1-((2S,4R)-4-(benzyloxy)-2-((4-bromophenyl)(3-((4-(2-(2,6-dioxopiperidin-3-yl)-1-oxoisoindolin-4-yl)but-3-yn-1-yl)amino)-3-oxopropyl)carbamoyl)pyrrolidin-1-yl)-3,3-dimethyl-1-oxobutan-2-yl)carbamoyl)benzo[b]thiophen-5-yl)difluoromethyl)phosphonic acid] |
